Data reported in PubChem BioAssay (NCI).
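All cell lines were grown in 96-well plates and treated with compound for 48 hours. TGI: total growth inhibition.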

Columns and labels:
Test in all cases: inhibition of tumour cell growth, NCI panel, 48 h
ACHN renal = tested on: ACHN renal
A549 NSCLC = tested on: A549 NSCLC
U251 CNS = tested on: U251 CNS
UACC-62 melanoma = tested on: UACC-62 melanoma
LOX IMVI melanoma = tested on: LOX IMVI melanoma
SR leukemia = tested on: SR leukemia
M14 melanoma = tested on: M14 melanoma
RXF 393 renal = tested on: RXF 393 renal
MDA-N = tested on: MDA-N
SF-268 CNS = tested on: SF-268 CNS
NCI/ADR-RES ovarian = tested on: NCI/ADR-RES ovarian
CCRF-CEM leukemia = tested on: CCRF-CEM leukemia
K-562 leukemia = tested on: K-562 leukemia
SK-MEL-28 melanoma = tested on: SK-MEL-28 melanoma
OVCAR-5 ovarian = tested on: OVCAR-5 ovarian
HT29 colon = tested on: HT29 colon
CAKI-1 renal = tested on: CAKI-1 renal

## CN=C1Nc2ccccc2C(=O)N2CSCC12 (centres undefined)
ACHN renal
  TGI: > 100 µM
A549 NSCLC
  TGI: > 100 µM
U251 CNS
  TGI: > 100 µM
UACC-62 melanoma
  TGI: > 100 µM
LOX IMVI melanoma
  TGI: > 100 µM
SR leukemia
  TGI: > 100 µM
M14 melanoma
  TGI: > 100 µM
RXF 393 renal
  TGI: > 100 µM
MDA-N
  TGI: > 100 µM
SF-268 CNS
  TGI: > 100 µM
NCI/ADR-RES ovarian
  TGI: > 100 µM
CCRF-CEM leukemia
  TGI: > 100 µM
K-562 leukemia
  TGI: > 100 µM
SK-MEL-28 melanoma
  TGI: > 100 µM
OVCAR-5 ovarian
  TGI: > 100 µM
HT29 colon
  TGI: > 100 µM
CAKI-1 renal
  TGI: > 100 µM

## Cc1cc(S(=O)(=O)Nc2n[nH]c(-c3ccc(Cl)cc3)n2)c(SSc2cc(Cl)c(C)cc2S(=O)(=O)Nc2n[nH]c(-c3ccc(Cl)cc3)n2)cc1Cl
ACHN renal
  TGI: 98.5 µM
A549 NSCLC
  TGI: > 100 µM
U251 CNS
  TGI: 78.6 µM
UACC-62 melanoma
  TGI: 47 µM
LOX IMVI melanoma
  TGI: 64.3 µM
SR leukemia
  TGI: 55.3 µM
M14 melanoma
  TGI: > 100 µM
RXF 393 renal
  TGI: 63.7 µM
MDA-N
  TGI: > 100 µM
SF-268 CNS
  TGI: > 100 µM
NCI/ADR-RES ovarian
  TGI: > 100 µM
CCRF-CEM leukemia
  TGI: 60.6 µM
K-562 leukemia
  TGI: 62.3 µM
SK-MEL-28 melanoma
  TGI: 96.4 µM
OVCAR-5 ovarian
  TGI: 86.9 µM
HT29 colon
  TGI: 57.2 µM
CAKI-1 renal
  TGI: > 100 µM

## N#C/C(=C\c1ccc(F)cc1)c1nc(-c2cc3ccccc3oc2=O)cs1
ACHN renal
  TGI: > 100 µM
A549 NSCLC
  TGI: > 100 µM
U251 CNS
  TGI: 61.4 µM
UACC-62 melanoma
  TGI: 38.7 µM
LOX IMVI melanoma
  TGI: > 100 µM
SR leukemia
  TGI: > 100 µM
M14 melanoma
  TGI: 50.7 µM
RXF 393 renal
  TGI: 64.2 µM
MDA-N
  TGI: > 100 µM
SF-268 CNS
  TGI: 46.2 µM
NCI/ADR-RES ovarian
  TGI: > 100 µM
CCRF-CEM leukemia
  TGI: > 100 µM
K-562 leukemia
  TGI: > 100 µM
SK-MEL-28 melanoma
  TGI: > 100 µM
OVCAR-5 ovarian
  TGI: > 100 µM
HT29 colon
  TGI: > 100 µM
CAKI-1 renal
  TGI: > 100 µM

## COc1ccc2c3c1OC1C(F)C=CC4(O)C(C2)NCCC314 (centres undefined)
ACHN renal
  TGI: 10.8 µM
A549 NSCLC
  TGI: 23.1 µM
U251 CNS
  TGI: 6.59 µM
UACC-62 melanoma
  TGI: 10.5 µM
LOX IMVI melanoma
  TGI: 10.4 µM
SR leukemia
  TGI: 4.42 µM
M14 melanoma
  TGI: 4.93 µM
RXF 393 renal
  TGI: 7.98 µM
MDA-N
  TGI: 11 µM
SF-268 CNS
  TGI: 6.93 µM
NCI/ADR-RES ovarian
  TGI: 38.3 µM
CCRF-CEM leukemia
  TGI: 3.91 µM
K-562 leukemia
  TGI: > 100 µM
SK-MEL-28 melanoma
  TGI: 10.7 µM
OVCAR-5 ovarian
  TGI: 12.8 µM
HT29 colon
  TGI: 10.9 µM
CAKI-1 renal
  TGI: 6.56 µM

## COc1cc(OC)cc(OCc2nc3cc(C(F)(F)F)ccc3nc2-c2ccccc2)c1
ACHN renal
  TGI: > 100 µM
A549 NSCLC
  TGI: > 100 µM
U251 CNS
  TGI: > 100 µM
UACC-62 melanoma
  TGI: > 100 µM
LOX IMVI melanoma
  TGI: > 100 µM
SR leukemia
  TGI: > 100 µM
M14 melanoma
  TGI: > 100 µM
RXF 393 renal
  TGI: > 100 µM
MDA-N
  TGI: > 100 µM
SF-268 CNS
  TGI: > 100 µM
NCI/ADR-RES ovarian
  TGI: > 100 µM
CCRF-CEM leukemia
  TGI: > 100 µM
K-562 leukemia
  TGI: > 100 µM
SK-MEL-28 melanoma
  TGI: > 100 µM
OVCAR-5 ovarian
  TGI: > 100 µM
HT29 colon
  TGI: > 100 µM
CAKI-1 renal
  TGI: > 100 µM

## O=C(O)c1ccccc1C(=O)NCC1S(=O)(=O)OCCOS1(=O)=O
ACHN renal
  TGI: > 100 µM
A549 NSCLC
  TGI: > 100 µM
U251 CNS
  TGI: > 100 µM
UACC-62 melanoma
  TGI: > 100 µM
LOX IMVI melanoma
  TGI: > 100 µM
SR leukemia
  TGI: > 100 µM
M14 melanoma
  TGI: > 100 µM
RXF 393 renal
  TGI: > 100 µM
MDA-N
  TGI: > 100 µM
SF-268 CNS
  TGI: > 100 µM
NCI/ADR-RES ovarian
  TGI: > 100 µM
CCRF-CEM leukemia
  TGI: > 100 µM
K-562 leukemia
  TGI: > 100 µM
SK-MEL-28 melanoma
  TGI: > 100 µM
OVCAR-5 ovarian
  TGI: > 100 µM
HT29 colon
  TGI: > 100 µM
CAKI-1 renal
  TGI: > 100 µM

## Cc1cc(NC2=CC(=O)C(=O)c3ccccc32)no1
ACHN renal
  TGI: 25.8 µM
A549 NSCLC
  TGI: 19.4 µM
U251 CNS
  TGI: 13.4 µM
UACC-62 melanoma
  TGI: 9.27 µM
LOX IMVI melanoma
  TGI: 4.06 µM
SR leukemia
  TGI: > 48.1 µM
M14 melanoma
  TGI: 28.3 µM
RXF 393 renal
  TGI: 29.6 µM
MDA-N
  TGI: 3.34 µM
SF-268 CNS
  TGI: 31.2 µM
NCI/ADR-RES ovarian
  TGI: 15.6 µM
CCRF-CEM leukemia
  TGI: 40.9 µM
K-562 leukemia
  TGI: 20.1 µM
SK-MEL-28 melanoma
  TGI: 31.6 µM
OVCAR-5 ovarian
  TGI: 18.1 µM
HT29 colon
  TGI: 28.3 µM
CAKI-1 renal
  TGI: 17.1 µM

## c1csc(-c2nn3c(C45CC6CC(CC(C6)C4)C5)nnc3s2)c1
ACHN renal
  TGI: > 100 µM
A549 NSCLC
  TGI: > 100 µM
U251 CNS
  TGI: > 100 µM
UACC-62 melanoma
  TGI: > 100 µM
LOX IMVI melanoma
  TGI: > 100 µM
SR leukemia
  TGI: > 100 µM
M14 melanoma
  TGI: > 100 µM
RXF 393 renal
  TGI: > 100 µM
MDA-N
  TGI: > 100 µM
SF-268 CNS
  TGI: > 100 µM
NCI/ADR-RES ovarian
  TGI: > 100 µM
CCRF-CEM leukemia
  TGI: > 100 µM
K-562 leukemia
  TGI: > 100 µM
SK-MEL-28 melanoma
  TGI: > 100 µM
OVCAR-5 ovarian
  TGI: > 100 µM
HT29 colon
  TGI: > 100 µM
CAKI-1 renal
  TGI: > 100 µM

## NC(=O)C1CCCN1C(=O)C(Cc1cnc[nH]1)NC(=O)C1CCCC1 (centres undefined)
ACHN renal
  TGI: > 100 µM
A549 NSCLC
  TGI: > 100 µM
U251 CNS
  TGI: > 100 µM
UACC-62 melanoma
  TGI: > 100 µM
LOX IMVI melanoma
  TGI: > 100 µM
SR leukemia
  TGI: > 100 µM
M14 melanoma
  TGI: > 100 µM
RXF 393 renal
  TGI: > 100 µM
MDA-N
  TGI: > 100 µM
NCI/ADR-RES ovarian
  TGI: > 100 µM
CCRF-CEM leukemia
  TGI: > 100 µM
K-562 leukemia
  TGI: > 100 µM
SK-MEL-28 melanoma
  TGI: > 100 µM
OVCAR-5 ovarian
  TGI: > 100 µM
HT29 colon
  TGI: > 100 µM
CAKI-1 renal
  TGI: > 100 µM

## COC(=O)CCC(=O)c1ccc2c(c1)CCC2
ACHN renal
  TGI: > 100 µM
A549 NSCLC
  TGI: > 100 µM
U251 CNS
  TGI: > 100 µM
LOX IMVI melanoma
  TGI: > 100 µM
SR leukemia
  TGI: > 100 µM
M14 melanoma
  TGI: > 100 µM
RXF 393 renal
  TGI: > 100 µM
MDA-N
  TGI: > 100 µM
SF-268 CNS
  TGI: > 100 µM
NCI/ADR-RES ovarian
  TGI: > 100 µM
CCRF-CEM leukemia
  TGI: > 100 µM
K-562 leukemia
  TGI: > 100 µM
SK-MEL-28 melanoma
  TGI: > 100 µM
OVCAR-5 ovarian
  TGI: > 100 µM
HT29 colon
  TGI: > 100 µM
CAKI-1 renal
  TGI: > 100 µM

## CC(=O)c1nc2ccccc2n1C(C)C(=O)c1ccccc1 (centres undefined)
A549 NSCLC
  TGI: > 100 µM
U251 CNS
  TGI: > 100 µM
UACC-62 melanoma
  TGI: > 100 µM
LOX IMVI melanoma
  TGI: > 100 µM
SR leukemia
  TGI: > 100 µM
M14 melanoma
  TGI: > 100 µM
RXF 393 renal
  TGI: > 100 µM
MDA-N
  TGI: > 100 µM
SF-268 CNS
  TGI: > 100 µM
NCI/ADR-RES ovarian
  TGI: > 100 µM
CCRF-CEM leukemia
  TGI: > 100 µM
K-562 leukemia
  TGI: > 100 µM
SK-MEL-28 melanoma
  TGI: > 100 µM
HT29 colon
  TGI: > 100 µM
CAKI-1 renal
  TGI: > 100 µM

## CCOC(=O)Cc1csc(NC(NC(=O)OCC)(C(=O)OCC)C(F)(F)F)n1 (centres undefined)
ACHN renal
  TGI: > 100 µM
A549 NSCLC
  TGI: > 100 µM
U251 CNS
  TGI: > 100 µM
LOX IMVI melanoma
  TGI: > 100 µM
SR leukemia
  TGI: > 100 µM
M14 melanoma
  TGI: > 100 µM
RXF 393 renal
  TGI: > 100 µM
MDA-N
  TGI: > 100 µM
SF-268 CNS
  TGI: > 100 µM
NCI/ADR-RES ovarian
  TGI: > 100 µM
CCRF-CEM leukemia
  TGI: > 100 µM
K-562 leukemia
  TGI: > 100 µM
SK-MEL-28 melanoma
  TGI: > 100 µM
OVCAR-5 ovarian
  TGI: > 100 µM
HT29 colon
  TGI: > 100 µM
CAKI-1 renal
  TGI: > 100 µM
